Laboratory results taken from EP4772530A1, “PEPTIDE TARGETING SOMATOSTATIN RECEPTOR, DRUG CONJUGATE AND USE THEREOF” (Mainline Biosciences (Shanghai) Co., Ltd., priority 2023, dated 2025).
Several values for one entry are separate records, joined by “and”; a condition that tells them apart may be missing. Equal values may be shown once. Entries after “also recorded” stand apart in the source; their conditions may differ.

System: Human multiple myeloma MM.1S cells
Test: EX3.3 in vivo pharmacodynamics, MM.1S subcutaneous xenograft model
Design: species or system CB17 SCID mice
Conditions: for Tumor Volume (Mean ± SEM): IV, Twice Weekly
Procedure: Human multiple myeloma MM.1S cells were suspended and cultured in vitro in 1640 medium containing 10% fetal bovine serum, 100 U/mL penicillin, and 100 µg/mL streptomycin in a 5% CO2 incubator at 37°C. The suspended cells were collected by centrifugation twice a week and adherent cells were digested with trypsin-EDTA to prepare a cell suspension for subculture. When the cell saturation was 80%-90% and the cell number reached the requirement, the cells were collected, counted, and inoculated.
CB17 SCID mice, female, 6-8 weeks old, weighing 18-22 g, provided by Zhejiang Vital River Laboratory Animal Technology Co., Ltd.
Each mouse was subcutaneously injected with 100 µL of PBS containing 5×10^6 MM.1S cells + 100 µL of Matrigel (final volume: 200 µL) at the axilla of the right forelimb. At 20 days after injection, when the average tumor volume reached 109 mm^3, mice were grouped for dosing (vehicle control,Ixazomib Citrate, and Example 1 treatment groups, with 6 animals per group). The Ixazomib Citrate group was orally administered by gavage (4 mg/kg) twice a week; the vehicle control group (5%DMSO + 95% normal saline) and the Example 1 treatment group (1.75 mg/kg) were slowly intravenously injected for about 30 seconds each time, twice a week.
The experimental indicators were used to investigate whether tumor growth was inhibited, delayed, or cured. The tumor diameter was measured twice a week using a vernier caliper. The tumor volume was calculated as follows: V = 0.5a×b^2, where a and b were the long and short diameters of the tumor, respectively.
The anti-tumor efficacy of the drug was evaluated based on TGI (%) or relative tumor proliferation rate T/C (%). TGI (%) was the tumor growth inhibition rate. TGI (%) was calculated as follows: TGI (%)=[(1 -(mean tumor volume at the end of dosing in a certain treatment group - mean tumor volume at the start of dosing in the treatment group))/ (mean tumor volume at the end of dosing in the vehicle control group - mean tumor volume at the start of dosing in the vehicle control group)]× 100%.
T/C (%) was calculated as follows:T/C (%)= TRTV/ CRTV× 100 %. Based on the results of tumor measurement, the relative tumor volume (RTV) was calculated as follows: RTV = Vt/V0, where V0 was the mean tumor volume measured at the time of grouping (i.e. d0), and Vt was the mean tumor volume at a certain measurement. Data on the same day were taken for TRTV and CRTV.
Tumor weights were measured at the end of the experiment and T/Cweight was calculated, where Tweight and Cweight were tumor weights in the treatment and vehicle control groups, respectively.
Statistical analysis, including the mean and standard error (SEM) of tumor volume at each time point in each group (see Table 5-1 in Section 5.2 for specific data), was performed to evaluate differences between groups based on data from the treatment group on Day 18 post-dose at the end of the experiment. A t-test was used for comparison between two groups, and one-way ANOVA was used for comparison among three or more groups. If there was a significant difference in F value, the Games-Howell method was used for testing; if there was no significant difference in F value, the Dunnet (2-sided) method was used for analysis. All data were analyzed using SPSS 17.0.

[1] = 18 days after the start of dosing, Example 1 1.75 mg/kg IV twice a week

CC[C@H](C)[C@@H]([C@@H](CC(=O)N1CCC[C@H]1[C@H](OC)[C@@H](C)C(=O)N[C@H](C)[C@@H](O)c1ccccc1)OC)N(C)C(=O)[C@@H](NC(=O)[C@H](C(C)C)N(C)C(=O)OCc1ccc(NC(=O)[C@H](CCCNC(N)=O)NC(=O)[C@@H](NC(=O)CCCCCN2C(=O)CC(SC[C@H](NC(C)=O)C(=O)NCCOCCOCC(=O)N[C@@H](CCCNC(=N)N)C(=O)N[C@@H](CCCNC(=N)N)C(=O)N[C@@H](CC(C)C)C(=O)N[C@@H](Cc3ccccc3)C(=O)N[C@H]3CSSC[C@@H](C(=O)N[C@H](C(=O)N[C@@H](Cc4c[nH]c5ccccc45)C(=O)N[C@@H](CCCNC(=N)N)C(=O)N[C@@H](CC(=O)O)C(N)=O)[C@@H](C)O)NC(=O)[C@H]([C@@H](C)O)NC(=O)[C@H](CCCCN)NC(=O)[C@@H](Cc4c[nH]c5ccccc45)NC(=O)[C@H](Cc4ccc(O)cc4)NC3=O)C2=O)C(C)C)cc1)C(C)C (stereo partly drawn) [Example 1, Cys(MC-Val-Cit-PABC-MMAE)-AEEA-Arg-Arg-Leu-Phe-[Cys-Tyr-D-Trp-Lys-Thr-Cys]-Thr-Trp-Arg-Asp-NH2]
T/C [1]: 0.94% | TGI [1]: 103.59% | tumor inhibition compared to the vehicle control group (18 days after the start of dosing, Example 1 1.75 mg/kg, p= 0.010, 1.75 mg/kg): significant tumor inhibition; also recorded: significant anti-tumor effect | Tumor Volume (Mean ± SEM) (Day 4, Example 1 1.75 mg/kg): 144 ± 14 mm3 | Tumor Volume (Mean ± SEM) (Day 7, Example 1 1.75 mg/kg): 124 ± 13 mm3 | Tumor Volume (Mean ± SEM) (Day 11, Example 1 1.75 mg/kg): 87 ± 11 mm3 | Tumor Volume (Mean ± SEM) (Day 14, Example 1 1.75 mg/kg): 50 ± 8 mm3 | Tumor Volume (Mean ± SEM) (Day 18, Example 1 1.75 mg/kg, 1.75 mg/kg): 23 mm3 and 23 ± 5 mm3 | Tumor Volume (Mean ± SEM) (Day 21, Example 1 1.75 mg/kg): 12 ± 5 mm3 | Tumor Volume (Mean ± SEM) (Day 25, Example 1 1.75 mg/kg): 0 ± 0 mm3 | Tumor Volume (Mean ± SEM) (Day 28, Example 1 1.75 mg/kg): 0 ± 0 mm3 | complete response rate (Example 1 1.75 mg/kg): 100% | complete response (Example 1 1.75 mg/kg, 6 animals in the group): all achieved a complete response
